Experimental data: patent US10006920B2, “Diagnostic kit for diagnosis of abnormal protein aggregation- or misfolding-related diseases using dissociation of protein aggregates” (KOREA INSTITUTE OF SCIENCE AND TECHNOLOGY, priority 2013, dated 2018)
Values joined by “and” are separate entries in the source; they are usually repeats but may differ in a detail not shown here. Equal entries are not always repeated. “Also recorded” adds a separate entry of the source.

Tests used:
[1] = system: β-amyloid oligomers, profibrils, fibrils and plaques; experiment: Electron microscopic observation of β-amyloid aggregates; assay type: biochemical; conditions: electron microscopy
β-amyloid [2] = molecular target: T1, β-amyloid (Homo sapiens, UniProt P05067); experiment: Plasma β-amyloid concentration before and after administration of EPPS, B−A by Equation 1; assay type: in vivo, APP/PS1 transgenic mice; design: tissue Jackson Laboratory (mice); host or cells: plasma / whole blood of female APP/PS1 transgenic mice; B-A (1 day) / B-A (5 days) / B-A (19 days) / B-A (33 days): unit not given here; conditions: for B-A (1 day): average of three measurements
Protocol: Female APP/PS1 transgenic mice were used as test animals. A total of 32 mice were used (eleven 5-6 month-olds and twenty-one 7.2-8.6 and 13 month-olds). 5-6-month-old mice were used since β-amyloid plaque accumulation in the brain begins from 5 months.
The transgenic APP/PS1 mouse model was B6C3-Tg(APPswe, PSEN1dE9)85Dbo/Mmjax purchased from the Jackson Laboratory (USA) and maintained and used for experiments under the guideline of the Animal Care and Use Committee.
EPPS was administered to each of the 32 mice at a dose of 1,000 mg/kg/day.
Blood was drawn from the of the retro-orbital venous plexus of the mouse using a microtube (Marienfeld, Germany) treated with 80 IU/mL heparin before and after the administration of EPPS. The blood drawing after the administration of EPPS was performed 1 day, 5 days, 19 days and 33 days after the administration of EPPS.
The blood was collected in an Eppendorf tube and centrifuged at 13,500 rpm and 4° C. for 5 minutes. Plasma separated from the cell fraction was collected in an Eppendorf tube for immediate use or for storage at −80° C. for later use.
β-Amyloid concentration in the plasma collected before and after the administration of EPPS was measured by detection units 1 and 2 of a kit. B−A was calculated by a calculation unit from the measured concentrations using [Equation 1].

[3] = system: β-amyloid oligomers, profibrils, fibrils and plaque aggregates; experiment: SDS-PAGE analysis of dissociation of β-amyloid aggregates; assay type: biochemical
β-amyloid [4] = molecular target: T1, β-amyloid; experiment: β-amyloid monomer concentration in plasma and whole blood treated with EPPS (APP/PS1/Tau transgenic mouse); design: tissue Jackson Laboratory (mice); host or cells: plasma / whole blood of 5-month-old female APP/PS1/Tau transgenic mice, treated ex vivo with EPPS; conditions: 5-month-old APP/PS1/Tau mice
Text: 5-month-old female APP/PS1/Tau transgenic mice were used as test animals.
The transgenic APP/PS1/Tau mouse model was B6;129-Psen1tm1MpmTg(APPSwe,tauP301L)1Lfa/Mmjax purchased from the Jackson Laboratory (USA) and maintained and used for experiments under the guideline of the Animal Care and Use Committee.
Blood was collected in K2 EDTA-treated vacuum tube containing Roche Complete Mini (protease inhibitor) solution and centrifuged. Plasma separated from the cell fraction was collected in an Eppendorf tube and prepared into 0.1-mL samples, which were used immediately or stored at −80° C. for later use. Whole blood was collected in an Eppendorf tube by treating with EPPS and separating plasma from the cell fraction and prepared into 0.1-mL samples, which were used immediately for β-amyloid concentration measurement or stored at −80° C. for later use.
The plasma was treated with water (control group) or EPPS (EPPS group).
As for the EPPS group, 15 μL of the plasma was treated with 5 μL of 400 mM EPPS, so that the final EPPS concentration was 100 mM. As for the control group, 15 μL of plasma was treated with 5 μL of PBS, so that the concentration was the same as that of the EPPS group. […]
The whole blood was analyzed after treating with EPPS. […]
The β-amyloid concentration in each plasma was measured using detection units 1 and 2 and MB/MP was calculated by a calculation unit using [Equation 2].

β-amyloid [5] = molecular target: T1, β-amyloid; experiment: β-amyloid concentration in plasma and whole blood treated with EPPS (APP/PS1 transgenic mouse); design: tissue Jackson Laboratory (mice); host or cells: plasma / whole blood of female APP/PS1 transgenic mice; conditions: 9-month-old APP/PS1 mice
Protocol: 9-month-old female APP/PS1 transgenic mice were used as test animals.
The transgenic APP/PS1 mouse model was B6C3-Tg(APPswe,PSEN1dE9)85Dbo/Mmjax purchased from the Jackson Laboratory (USA) and bred and used for experiments under the guideline of the Animal Care and Use Committee.
Sample treatment and β-amyloid concentration measurement were conducted in the same manner as in Example 1.

[6] = Aged (7.2 months or older) female APP/PS1 mice, one value per mouse, EPPS 1,000 mg/kg/day, plasma β-amyloid after minus before
[7] = EPPS-treated whole blood / EPPS-treated plasma (Equation 2)
[8] = control plasma / EPPS-treated plasma (Equation 3)

T1 sequence (P05067 672-713 limits assumed): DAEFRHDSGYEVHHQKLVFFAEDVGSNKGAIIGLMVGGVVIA

With `O=S(=O)(O)CCCN1CCN(CCO)CC1` [EPPS, 4-(2-Hydroxyethyl)-1-piperazinepropanesulfonic acid] the “Dissociation of β-amyloid aggregates by electron microscopic observation” value [1] was “no β-amyloid aggregates are observed; also recorded: confirms the activity of dissociating β-amyloid dimers, oligomers, profibrils, fibrils and plaques”, the “β-amyloid 42 concentration in plasma after administration (FIG. 3a)” value (β-amyloid [2]; 5-6-month-old (young) and 7.2-month-old (aged) mice, before vs 24 hours after) was “significant increase” and the “β-amyloid 42 concentration in plasma, course over time (FIG. 3b)” value (β-amyloid [2]; 7.2-month-old (aged) mice, 1, 5, 19 and 33 days after administration) was “significant increase in β-amyloid 42 concentration followed by decrease”. The “B−A value (sign)” value (β-amyloid [2]; 24 hours (1 day) after administration of EPPS, all the mice) was “positive (+)”, the “B-A (5 days)” value (β-amyloid [2]; [6]) was 93.531 and 163.986 and 51.584 and 76.049 and 170.979 and 86.122 and 108.916 and 311.820 and 134.965 and 170.656 and 207.692 and 55.115 and 209.711 and 88.441 and 105.420 and 130.096 and 118.007 and 70.105 and 185.315 and 66.259 and 214.549 and the “B-A (19 days)” value (β-amyloid [2]; [6]) was 298.504 and 52.809 and 70.596 and 86.108 and 129.025 and 57.487 and 53.294 and 43.826 and 101.221 and 82.444 and 136.814 and 131.569 and 88.695 and 61.725 and 27.070 and 32.708 and 22.406 and 20.515 and 59.409. The “B-A (33 days)” value (β-amyloid [2]; [6]) was 114.33 and 23.509 and 148.154 and 21.599 and 71.410 and 4.797 and 24.240 and 11.079 and 42.621 and 31.969 and 60.179 and 39.237 and 23.448 and 33.902 and 41.596 and 59.545 and 31.762 and 51.292 and 78.101, the “B-A (1 day)” value (β-amyloid [2]; [6]) was 78.802 and 41.434 and 20.276 and 12.442 and 15.385 and 7.373 (2×) and 182.867 and 10.138 and 13.364 and 11.060 and 4.147 and 140.559 and 16.129 and 194.580 and 18.894 and 6.119 and 345.979 and 19.816 and 156.294 and 180.594 and the “B-A (1 day)” value (β-amyloid [2]; Young (5-6 months) female APP/PS1 mice, one value per mouse, EPPS 1,000 mg/kg/day, plasma β-amyloid after minus before) was 52.151 and 22.674 and 98.547 and 20.430 and 191.398 and 124.731 and 108.065 and 102.326 and 89.535 and 94.186 and 146.802. The “B−A value, course over time” value (β-amyloid [2]; since 19 days after the administration of EPPS) was “began to decrease”, the “Dissociation of β-amyloid aggregates (bands of Aβ 40 and Aβ 42 monomers, 4.3-4.5 kD)” value [3] was “has the activity of dissociating β-amyloid oligomers, profibrils, fibrils and plaque aggregates; also recorded: has the activity of dissociating β-amyloid dimer, oligomer, profibril, fibril and plaque aggregates” and the MB/MP (β-amyloid [4]; [7]) was 0.61. The UP/MP (β-amyloid [4]; [8]) was 0.92, the MB/MP (β-amyloid [5]; [7]) was 0.79 and the UP/MP (β-amyloid [5]; [8]) was 0.99. The “MP Aβ concentration (monomer concentration in plasma of the EPPS group)” value (β-amyloid [5]; plasma treated with EPPS, average of three measurements) was 151.58 ± 24.03.
